Test results taken from patent US20150258127A1, “METHODS FOR PREVENTING ANTIPHOSPHOLIPID SYNDROME (APS)” (INSERM (INSTITUT NATIONAL DE LA SANTÉ ET DE LA RECHERCHE …, priority 2012, published 2015).
Read-outs that look alike come from different tables or passages of the source. Each block holds one compound with its values, some of them ahead of it.

Tests used:
[1] = tested on: P-AKT (Ser^473) (mTORC2) in human micro vascular endothelial cells (HMEC); experiment: Western blot of P-AKT (Ser473) (mTORC2) in HMEC exposed to APA IgG; assay type: cell-based; conditions: HMEC pretreated one hour with inhibitor (PP242 0.5 μM; LY294002 20 μM), then APA IgG 5 minutes
Method: (§1) All experiments were performed in duplicates.
(§2) Western blots were performed as previously described^28. […] Images were acquired using Fusion FX7 system (Vilber Loumart) and analysed using Bio-1D software (Vilber Loumart).

[2] = tested on: P-S6RP (mTORC1) in human micro vascular endothelial cells (HMEC); experiment: Western blot of P-S6RP (mTORC1) in HMEC exposed to APA IgG; assay type: cell-based; conditions: HMEC pretreated one hour with inhibitor (PP242 0.5 μM), then APA IgG 5 minutes
Method: as §1, §2

[3] = Cyclosporine, tacrolimus and sirolimus serum levels in transplant recipients; assay type: in vivo; conditions: human, 12 months post-transplantation, mean ± SEM
Method: (§3) The serum creatinine level was measured using a Synchron Cx4 autoanalyzer (Beckman Coulter, Villepinte, France). The glomerular filtration rate (GFR) was evaluated by iohexol clearance at 3- and 12-months post transplant as previously described^25. Cyclosporine and tacrolimus serum levels were determined by radioimmunoas say and sirolimus serum levels by high-performance liquid chromatography^26.

[4] = tested on: kidney allograft microcirculation inflammation; experiment: Microcirculation inflammation in kidney biopsies, Banff classification; assay type: in vivo, human; conditions: Tx aPL+ Siro+, mean ± SEM
Text: (§4) Biopsy samples and morphological analysis: Human kidney biopsies were either fixed, in alcoholic Bouin's solution (native kidneys) or in alcohol-formalin-acetic acid solution (transplant kidneys). Carotid and left anterior descending arteries from autopsy cases were fixed in formalin. All samples were then embedded in paraffin. Four-μm sections were stained with Periodic Acid Schiff (PAS), Masson's trichrome and hematoxyin and eosin (H&E). Schiff (PAS), Masson's trichrome and hematoxylin and eosin (HE). Kidney biopsies were independently examined and scored by two pathologists at Necker Hospital. Lesions related to APS-nephropathy were quantified according to the usual criteria^12. For each biopsy, the number of vessels displaying fibrous intimal hyperplasia were counted in all the fields of the section, and the data were expressed as the number of damaged vessels for the total number of vascular sections. Lesions related to allograft nephropathy were evaluated according to the Banff classification^27, which takes into account glomerular, tubular and interstitial changes. Autopsy cases were carefully examined by two pathologists at La Pitie Salpetiere Hospital. Vascular lesions, and in particular fibrous intimal hyperplasia, were searched for and characterized in all the tissues.

[5] = tested on: kidney transplant recipients with antiphospholipid antibodies (Tx APA+); experiment: Kidney transplant recipients cohort: vascular lesions, mGFR, allograft survival; assay type: in vivo, human
Text: Briefly, the inventors studied a first group of transplant recipients with APA+ (Tx APA+, n=37) and a control group of transplants recipients without APA− (Tx APA−, n=59) engrafted during the same period. These patients were followed in the Transplant unit of Necker Hospital. All patients with functioning allograft had surveillances biopsies and measured glomerular filtration rate (mGFR) at 3- and 12-months post transplantation. Patients had similar immunosuppressive regimen consisting in steroids, purine inhibitor and calcineurine inhibitor, except for thirteen and ten patients in the Tx APA− and Tx APA+ group, respectively, that received sirolimus starting at day 0 instead of calcineurin inhibitor.
as §3
as §4, with “Four-μm sections were stained with Periodic Acid Schiff (PAS), Masson's trichrome and hematoxyin and eosin (H&E). Schiff (PAS), Masson's trichrome and hematoxylin and eosin (HE).” left out, “Autopsy cases were carefully examined by two pathologists at La Pitie Salpetiere Hospital. Vascular lesions, and in particular fibrous intimal hyperplasia, were searched for and characterized in all the tissues.” left out

Compound: O=c1cc(N2CCOCC2)oc2c(-c3ccccc3)cccc12 [LY294002, 2-(4-Morpholinyl)-8-phenyl-4H-1-benzopyran-4-one]
APA-induced AKT phosphorylation / activation of the AKT pathway [1]: completely prevent

Compound: CC(C)n1nc(-c2cc3cc(O)ccc3[nH]2)c2c(N)ncnc21 [PP242]
APA-induced S6RP phosphorylation [2]: completely abolished

concentration at 12 months ([3]; Tx aPL+ Sirolimus− (n = 27), read-out: 12-Mo Tacrolimus trough levels): 0.0103 ± 0.0059 µg/mL
concentration at 12 months ([3]; Tx aPL− (n = 59), read-out: 12-Mo Tacrolimus trough levels): 0.01 ± 0.006 µg/mL
Compound: C=CC[C@@H]1/C=C(\C)C[C@H](C)C[C@H](OC)[C@H]2O[C@@](O)(C(=O)C(=O)N3CCCC[C@H]3C(=O)O[C@H](/C(C)=C/[C@@H]3CC[C@@H](O)[C@H](OC)C3)[C@H](C)[C@@H](O)CC1=O)[C@H](C)C[C@@H]2OC [Tacrolimus]

Compound: CO[C@H]1C[C@@H]2CC[C@@H](C)[C@@](O)(O2)C(=O)C(=O)N2CCCC[C@H]2C(=O)O[C@H]([C@H](C)C[C@@H]2CC[C@@H](O)[C@H](OC)C2)CC(=O)[C@H](C)/C=C(\C)[C@@H](O)[C@@H](OC)C(=O)[C@H](C)C[C@H](C)/C=C/C=C/C=C/1C [sirolimus, rapamycin]
concentration at 12 months ([3]; Tx aPL+ Sirolimus+ (n = 10), read-out: 12-Mo Sirolimus levels): 0.018 ± 0.009 µg/mL
concentration at 12 months ([3]; Tx aPL− (n = 59), read-out: 12-Mo Sirolimus levels): 0.016 ± 0.002 µg/mL
C4d (C4 deposits), Banff score ([4]; Month 3 post-Tx): 0.2 ± 0.4
g (Glomerulitis), Banff score ([4]; Month 3 post-Tx): 0.1 ± 0.4
ptc (Peritubular Capillaritis), Banff score ([4]; Month 3 post-Tx): 0.1 ± 0.4
Banff microcirculation inflammation score ([4]; Month 12 post-Tx): 0.1 ± 0.3
C4d (C4 deposits), Banff score ([4]; Month 12 post-Tx): 0.1 ± 0.3
ptc (Peritubular Capillaritis), Banff score ([4]; Month 12 post-Tx): 0.1 ± 0.3
measured glomerular filtration rate (mGFR) ([5]; Tx APA+ Siro+ patients, 12 months post transplantation, 39.6±14.6 in APA+ Siro−): 56 ± 10.8 mL/min
death-censored allograft survival ([5]; Tx aPL+ recipients, 12% without sirolimus): 70%
allograft survival rate ([5]; transplant recipients with antiphospholipid antibodies, 8% without sirolimus, up to 144 months post transplantation): 70%
